≈ marks a conversion by molar mass, not a printed value. Calls of active or inactive are those of the source. No cut-off for these calls is given here.
Experiments:
[1] = tested on: Candida albicans; assay: In-vivo antifungal activity against Candida albicans […] infected in skin infected ICR mouse model assessed as wound healing at 1 mg/kg, ip pretreated for 24 hrs followed by infection and measured for 5 days; type: functional, organism-based; settings: time 144.0 hrs
[2] = tested on: Candida albicans; assay: In-vivo antifungal activity against Candida albicans […] infected in skin infected ICR mouse model assessed as reduction in fungal burden in skin at 1 mg/kg, ip pretreated for 24 hrs followed by infection and measured for 5 days by Periodic acid-Schiff staining based analysis; type: functional, organism-based; settings: time 144.0 hrs
[3] = tested on: Candida albicans; assay: Antifungal activity against Candida albicans SC5314 assessed as reduction in fungal growth incubated for 24 hrs by CLSI based microdilution analysis; type: functional
[4] = tested on: Meyerozyma guilliermondii; assay: Antifungal activity against Meyerozyma guilliermondii ATCC 6260 assessed as reduction in fungal growth incubated for 24 hrs by CLSI based microdilution analysis; type: functional
[5] = tested on: Candida parapsilosis; assay: Antifungal activity against Candida parapsilosis ATCC 22019 assessed as reduction in fungal growth incubated for 24 hrs by CLSI based microdilution analysis; type: functional; settings: Lodderomyces parapsilosis
[6] = tested on: Candida tropicalis; assay: Antifungal activity against Candida tropicalis ATCC 750 assessed as reduction in fungal growth incubated for 24 hrs by CLSI based microdilution analysis; type: functional
[7] = tested on: Nakaseomyces glabratus; assay: Antifungal activity against Candida glabrata ATCC 15126 assessed as reduction in fungal growth incubated for 24 hrs by CLSI based microdilution analysis; type: functional
[8] = tested on: Cryptococcus neoformans; assay: Antifungal activity against Cryptococcus neoformans CGMCC3 1563 assessed as reduction in fungal growth incubated for 72 hrs by CLSI based microdilution analysis; type: functional
[9] = tested on: Aspergillus fumigatus; assay: Antifungal activity against Aspergillus fumigatus CGMCC3 7795 assessed as reduction in fungal growth incubated for 48 hrs by CLSI based microdilution analysis; type: functional
[10] = tested on: Candida albicans; assay: Antifungal activity against fluconazole-resistant Candida albicans 102 assessed as inhibition of fungal growth measured for 24 hrs by CLSI based microdilution analysis; type: functional
[11] = tested on: Candida albicans; assay: Antifungal activity against fluconazole-resistant Candida albicans 13 assessed as inhibition of fungal growth measured for 24 hrs by CLSI based microdilution analysis; type: functional
[12] = tested on: Candida albicans; assay: Antifungal activity against fluconazole-resistant Candida albicans 15 assessed as inhibition of fungal growth measured for 24 hrs by CLSI based microdilution analysis; type: functional
[13] = tested on: Candida albicans; assay: Antifungal activity against fluconazole-resistant Candida albicans 901 assessed as inhibition of fungal growth measured for 24 hrs by CLSI based microdilution analysis; type: functional
[14] = tested on: Candida albicans; assay: Antifungal activity against fluconazole-resistant Candida albicans 24D assessed as inhibition of fungal growth measured for 24 hrs by CLSI based microdilution analysis; type: functional
[15] = tested on: Candida albicans; assay: Antifungal activity against fluconazole-resistant Candida albicans 112869 assessed as inhibition of fungal growth measured for 24 hrs by CLSI based microdilution analysis; type: functional
[16] = Hemolytic activity in mouse RBC assessed as hemolysis at 100 microg/ml incubated for 60 mins relative to control; type: toxicity, cell-based, Erythrocyte; settings: red blood cells (erythrocytes), at 100 µg/mL, read-out: Activity
[17] = tested on: CYP3A4; assay: Selectivity index, ratio of MIC80 for antifungal activity against Candida albicans to IC50 for inhibition of CYP3A4 in human liver microsomes; type: toxicity; settings: read-out: Selectivity Index
[18] = tested on: Candida albicans; assay: Induction of resistance development in Candida albicans SC5314 assessed as increase in MIC treated over 8 serial passages by microdilution assay; type: functional
[19] = tested on: Candida albicans; assay: Induction of resistance development in Candida albicans SC5314 assessed as fold increase in MIC treated over 20 serial passages by microdilution assay; type: functional
[20] = target: T1, Lanosterol 14-alpha demethylase (Candida albicans (strain SC5314 / ATCC MYA-2876) (Yeast), UniProt P10613); assay: Inhibition of CYP51 in Candida albicans […] assessed as decrease in ergosterol biosynthesis level at 1 times MIC80 incubated for 16 hrs by GC-MS analysis (Rvb=67.2%)
[21] = target: T1, Lanosterol 14-alpha demethylase; assay: Inhibition of CYP51 in Candida albicans […] assessed as decrease in unknown sterol biosynthesis level at 1 times MIC80 incubated for 16 hrs by GC-MS analysis relative to control
[22] = tested on: Candida albicans; assay: In-vivo antifungal activity against Candida albicans […] infected in ICR mouse model assessed as median survival time at 1 mg/kg, ip administered once daily pretreated for 24 hrs followed by infection and measured every 2 hrs for 5 days; type: functional; settings: time 144 hrs
[23] = tested on: Candida albicans; assay: In-vivo antifungal activity against multidrug-resistant Candida albicans 24D infected in ICR mouse model assessed as median survival time at 1 mg/kg, ip administered once daily pretreated for 24 hrs followed by infection and measured every 2 hrs for 5 days; type: functional; settings: time 144 hrs
[24] = tested on: Candida albicans; assay: Potency index, ratio of fluconazole MIC80 to test compound MIC for antifungal activity against Candida albicans SC5314 assessed as reduction in fungal growth incubated for 24 hrs by CLSI based microdilution analysis; type: functional
[25] = tested on: Candida albicans; assay: Potency index, ratio of voriconazole MIC80 to test compound MIC for antifungal activity against Candida albicans SC5314 assessed as reduction in fungal growth incubated for 24 hrs by CLSI based microdilution analysis; type: functional
[26] = tested on: Candida albicans; assay: Potency index, ratio of itraconazole MIC80 to test compound MIC for antifungal activity against Candida albicans SC5314 assessed as reduction in fungal growth incubated for 24 hrs by CLSI based microdilution analysis; type: functional

T1 sequence (P10613 whole entry): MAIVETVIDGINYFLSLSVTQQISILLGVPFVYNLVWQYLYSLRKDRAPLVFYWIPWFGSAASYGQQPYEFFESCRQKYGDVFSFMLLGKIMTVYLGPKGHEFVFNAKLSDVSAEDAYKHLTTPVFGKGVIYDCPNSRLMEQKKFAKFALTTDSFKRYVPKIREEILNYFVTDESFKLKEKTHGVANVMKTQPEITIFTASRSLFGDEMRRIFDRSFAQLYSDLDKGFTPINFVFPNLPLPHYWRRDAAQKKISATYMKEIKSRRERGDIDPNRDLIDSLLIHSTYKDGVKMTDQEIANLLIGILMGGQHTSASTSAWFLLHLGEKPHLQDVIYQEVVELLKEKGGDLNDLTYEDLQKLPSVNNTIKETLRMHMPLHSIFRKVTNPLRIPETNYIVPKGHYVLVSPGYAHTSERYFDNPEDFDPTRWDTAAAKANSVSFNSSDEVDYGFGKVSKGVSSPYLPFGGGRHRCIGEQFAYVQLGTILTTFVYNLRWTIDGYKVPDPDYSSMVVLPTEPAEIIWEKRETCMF

In the case of N#C/C(=C1/SC[C@@H](c2ccc(Cl)cc2Cl)S1)n1ccnc1, the Activity [1] is reported as “inactive” and the Activity [2] is reported as “Active”.
Molecule OC(Cn1cncn1)(Cn1cncn1)c1ccc(F)cc1F [FLUCONAZOLE] has an MIC80 [3] of 0.5 µg/mL (≈ 1.63 µM), an MIC80 [4] of 1.25 µg/mL (≈ 4.08 µM) and an MIC80 [5] of 1.25 µg/mL (≈ 4.08 µM). The MIC80 [6] was 2.5 µg/mL (≈ 8.16 µM), the MIC80 [7] was 2.5 µg/mL (≈ 8.16 µM) and the MIC80 [8] was 1.25 µg/mL (≈ 4.08 µM). For the same molecule, the MIC80 [9] was > 100 µg/mL, the MIC80 [10] was > 100 µg/mL and the MIC80 [11] was > 100 µg/mL. The MIC80 [12] was 32 µg/mL (≈ 104 µM), the MIC80 [13] was > 100 µg/mL and the MIC80 [14] was > 100 µg/mL. The MIC80 [15] was > 100 µg/mL, the hemolysis at 1 h, 100 microg/ml [16] was 1.7% and the selectivity ratio [17] was 25. The “fold change (FC)” value [18] was 10, the “fold change (FC)” value [19] was 100 and the “inhibition (INH)” value [20] was 17.61%. For the same molecule, the “inhibition (INH)” value [21] was 24.78%.
C[C@@H](c1ncncc1F)[C@](O)(Cn1cncn1)c1ccc(F)cc1F [VORICONAZOLE] gave an MIC80 [3] of 0.062 µg/mL (≈ 0.177 µM), an MIC80 [4] of 0.062 µg/mL (≈ 0.177 µM) and an MIC80 [5] of 0.062 µg/mL (≈ 0.177 µM). It also gave an MIC80 [6] of 0.312 µg/mL (≈ 0.893 µM), an MIC80 [7] of 0.312 µg/mL (≈ 0.893 µM) and an MIC80 [8] of 0.031 µg/mL (≈ 0.0887 µM). For the same molecule, the MIC80 [9] was 0.312 µg/mL (≈ 0.893 µM), the MIC80 [10] was > 100 µg/mL and the MIC80 [11] was 25 µg/mL (≈ 71.6 µM). For the same molecule, the MIC80 [12] was 0.625 µg/mL (≈ 1.79 µM), the MIC80 [13] was > 100 µg/mL and the MIC80 [14] was > 100 µg/mL. For the same molecule, the MIC80 [15] was > 100 µg/mL, the Time [22] was 7 days and the Time [23] was 9 days.
For OC(CN1CCN(CCn2ccc3cc(Br)ccc32)CC1)(Cn1cncn1)c1ccc(F)cc1F (stereo not drawn), the MIC80 [3] was 0.015 µg/mL (≈ 0.0275 µM), the Ratio [24] was 32 and the Ratio [25] was 4. It also gave a Ratio [26] of 4, an MIC80 [4] of 0.015 µg/mL (≈ 0.0275 µM) and an MIC80 [5] of 0.015 µg/mL (≈ 0.0275 µM). For the same molecule, the MIC80 [6] was 0.156 µg/mL (≈ 0.286 µM), the MIC80 [7] was 0.156 µg/mL (≈ 0.286 µM) and the MIC80 [8] was 0.015 µg/mL (≈ 0.0275 µM). For the same molecule, the MIC80 [9] was 0.625 µg/mL (≈ 1.15 µM), the MIC80 [10] was 0.015 µg/mL (≈ 0.0275 µM) and the MIC80 [11] was 0.015 µg/mL (≈ 0.0275 µM). The MIC80 [12] was 0.312 µg/mL (≈ 0.572 µM), the MIC80 [13] was 1.25 µg/mL (≈ 2.29 µM) and the MIC80 [14] was 0.031 µg/mL (≈ 0.0568 µM). For the same molecule, the MIC80 [15] was 0.062 µg/mL (≈ 0.114 µM) and the hemolysis at 1 h, 100 microg/ml [16] was 1.2%.
